The compounds below were run on Rattus norvegicus (assay: Inhibition of rat passive cutaneous anaphylaxis (PCA) reaction was determined after oral administration). Settings: Rattus norvegicus, po; read-out: ID50 (the source's name).
Format: functional
Compound `C[C@H]1CC/C(=N\Nc2ccc(O)cc2)c2ncc(C(=O)O)c(=O)n21` has an ED50 greater than 100 µmol/kg. Work on `CCOc1ccc(N/N=C2\CC[C@@H](C)n3c2ncc(C(=O)O)c3=O)cc1` yielded an ED50 greater than 100 µmol/kg. `C[C@@H]1CC/C(=N\Nc2ccc(O)cc2)c2ncc(C(=O)O)c(=O)n21` was tested, and the ED50 was greater than 100 µmol/kg. Work on `O=C(O)c1cnc2n(c1=O)CCC/C2=N\Nc1ccccc1` yielded an ED50 greater than 100 µmol/kg. In the case of `CC1CC/C(=N\Nc2cccc(I)c2)c2ncc(C(=O)O)c(=O)n21` (centres undefined), the ED50 is reported as greater than 1000 µmol/kg. Compound `CCCCc1ccc(N/N=C2\CCC(C)n3c2ncc(C(=O)O)c3=O)cc1` (centres undefined) has an ED50 of 100 µmol/kg. In the case of `CCOc1cccc(N/N=C2\CCC(C)n3c2ncc(C(=O)O)c3=O)c1` (centres undefined), the ED50 is reported as greater than 100 µmol/kg. Work on `COc1ccc(N/N=C2\CCC(C)n3c2ncc(C(=O)O)c3=O)cc1` (centres undefined) yielded an ED50 of 7.6 µmol/kg. In the case of `CC1CC/C(=N\Nc2cccc(C(=O)O)c2)c2ncc(C(=O)O)c(=O)n21` (centres undefined), the ED50 is reported as greater than 100 µmol/kg. Work on `CCOC(=O)c1cnc2n(c1=O)C(C)CC/C2=N\Nc1ccccc1` (centres undefined) yielded an ED50 greater than 1000 µmol/kg. For `CC1CC/C(=N\Nc2ccccc2O)c2ncc(C(=O)O)c(=O)n21` (centres undefined), the ED50 was greater than 100 µmol/kg. `CC1CC/C(=N\Nc2ccccc2Cl)c2ncc(C(=O)O)c(=O)n21` (centres undefined) was tested, and the ED50 was greater than 1000 µmol/kg. `CC1CC/C(=N\Nc2ccccc2)c2ncc(C(=O)NN)c(=O)n21` (centres undefined) was tested, and the ED50 was greater than 1000 µmol/kg. In the case of `CC1CC/C(=N\Nc2ccc(-c3ccccc3)cc2)c2ncc(C(=O)O)c(=O)n21` (centres undefined), the ED50 is reported as greater than 100 µmol/kg. With `CC1CC/C(=N\Nc2ccccc2)c2ncc(C#N)c(=O)n21` (centres undefined) the ED50 was greater than 1000 µmol/kg. `CNC(=O)c1ccc(N/N=C2\CCC(C)n3c2ncc(C(=O)O)c3=O)cc1` (centres undefined) showed an ED50 greater than 100 µmol/kg. `CC1CC/C(=N\Nc2ccc(F)cc2)c2ncc(C(=O)O)c(=O)n21` (centres undefined) showed an ED50 greater than 1000 µmol/kg. `CC1CC/C(=N\Nc2ccccc2I)c2ncc(C(=O)O)c(=O)n21` (centres undefined) was tested, and the ED50 was greater than 1000 µmol/kg. With `CC1CC/C(=N\Nc2ccccc2C(=O)O)c2nccc(=O)n21` (centres undefined) the ED50 was greater than 100 µmol/kg. With `CC1CC/C(=N\Nc2ccccc2CCO)c2ncc(C(=O)O)c(=O)n21` (centres undefined) the ED50 was greater than 100 µmol/kg. `CCc1ccc(N/N=C2\CCC(C)n3c2ncc(C(=O)O)c3=O)cc1` (centres undefined) gave an ED50 greater than 1000 µmol/kg. With `CC1CC/C(=N\Nc2ccccc2[N+](=O)[O-])c2ncc(C(=O)O)c(=O)n21` (centres undefined) the ED50 was greater than 1000 µmol/kg. With `CC1CCC(=NNc2ccccc2C(=O)O)c2ncc(C(=O)O)c(=O)n21` (stereo in doubt; 57) the ED50 was greater than 100 µmol/kg.

Same assay, conditions: read-out: ID50 (the source's name)
Work on `CC1CC/C(=N\Nc2ccc(Cl)cc2)c2ncc(C(=O)O)c(=O)n21` (centres undefined) yielded an ED50 greater than 100 µmol/kg. `CC1CC/C(=N\Nc2cccc([N+](=O)[O-])c2)c2ncc(C(=O)O)c(=O)n21` (centres undefined) showed an ED50 greater than 100 µmol/kg.

Species: Rattus norvegicus
Assay: Inhibition of histamine release from sensitized rat mast cells in vitro
Format: functional
Settings: Rattus norvegicus, Mast cell; read-out: EC50
With `C[C@H]1CC/C(=N\Nc2ccc(O)cc2)c2ncc(C(=O)O)c(=O)n21` the EC50 was 26.2 µM. `CCOc1ccc(N/N=C2\CC[C@@H](C)n3c2ncc(C(=O)O)c3=O)cc1` showed an EC50 of 1 µM. In the case of `C[C@@H]1CC/C(=N\Nc2ccc(O)cc2)c2ncc(C(=O)O)c(=O)n21`, the EC50 is reported as 15.6 µM. `O=C(O)c1cnc2n(c1=O)CCC/C2=N\Nc1ccccc1` gave an EC50 of 2.9 µM. Compound `CCCCc1ccc(N/N=C2\CCC(C)n3c2ncc(C(=O)O)c3=O)cc1` (centres undefined) has an EC50 of 0.7 µM. `CCOc1cccc(N/N=C2\CCC(C)n3c2ncc(C(=O)O)c3=O)c1` (centres undefined) showed an EC50 of 4.7 µM. `CCOC(=O)c1cnc2n(c1=O)C(C)CC/C2=N\Nc1ccccc1C(=O)O` (centres undefined) gave an EC50 of 100 µM. With `CC1CC/C(=N\Nc2ccc(-c3ccccc3)cc2)c2ncc(C(=O)O)c(=O)n21` (centres undefined) the EC50 was 4.4 µM. Work on `CNC(=O)c1ccc(N/N=C2\CCC(C)n3c2ncc(C(=O)O)c3=O)cc1` (centres undefined) yielded an EC50 of 100 µM. Work on `CC1CC/C(=N\Nc2ccc(F)cc2)c2ncc(C(=O)O)c(=O)n21` (centres undefined) yielded an EC50 of 1.2 µM. Compound `CCOC(=O)c1cnc2n(c1=O)C(C)CC/C2=N\Nc1ccc(C(=O)O)cc1` (centres undefined) has an EC50 of 66 µM. In the case of `CC1CC/C(=N\Nc2ccccc2C(=O)O)c2nccc(=O)n21` (centres undefined), the EC50 is reported as 100 µM.

Same assay, conditions: mast cells
Compound `CC1CC/C(=N\Nc2ccc(C(=O)O)cc2)c2ncc(C(=O)O)c(=O)n21` (centres undefined) has an EC50 of 1000 uM l-1. In the case of `CCOC(=O)c1cnc2n(c1=O)C(C)CC/C2=N\Nc1cccc(C(=O)O)c1` (centres undefined), the EC50 is reported as 740 uM l-1. `COc1ccc(N/N=C2\CCC(C)n3c2ncc(C(=O)O)c3=O)cc1` (centres undefined) gave an EC50 of 128 uM l-1. In the case of `CC1CC/C(=N\Nc2ccccc2O)c2ncc(C(=O)O)c(=O)n21` (centres undefined), the EC50 is reported as 208 uM l-1. With `CC1CC/C(=N\Nc2ccccc2)c2ncc(CC(=O)O)c(=O)n21` (centres undefined) the EC50 was 430 uM l-1. With `CC1CC/C(=N\Nc2ccccc2CCO)c2ncc(C(=O)O)c(=O)n21` (centres undefined) the EC50 was 330 uM l-1. Work on `CC1CCC(=NNc2ccccc2C(=O)O)c2ncc(C(=O)O)c(=O)n21` (single isomer, unassigned; (+)) yielded an EC50 of 1100 uM l-1. `CC1CCC(=NNc2ccccc2C(=O)O)c2ncc(C(=O)O)c(=O)n21` (stereo in doubt; 57) was tested, and the EC50 was 569 uM l-1.

Species: Rattus norvegicus
Assay: The compound was tested for its ability to inhibit histamine release from sensitized rat mast cells in vitro
Format: functional, cell-based
Settings: not given
With `CC1CCC(=NNc2ccccc2C(=O)O)c2ncc(C(=O)O)c(=O)n21` (stereo in doubt; 56) the EC50 was 1300 uM l-1.

Same assay, conditions: Mast cell
With `CC1CC/C(=N\Nc2ccc(Cl)cc2)c2ncc(C(=O)O)c(=O)n21` (centres undefined) the EC50 was 16.6 µM. `CC1CC/C(=N\Nc2cccc(C(=O)O)c2)c2ncc(C(=O)O)c(=O)n21` (centres undefined) showed an EC50 of 10 µM.

Each compound was assayed on Rattus norvegicus (assay: Inhibition of rat passive cutaneous anaphylaxis (PCA) reaction after intravenous administration). Settings: not given.
Format: functional
With `CC1CCC(=NNc2ccccc2C(=O)O)c2ncc(C(=O)O)c(=O)n21` (single isomer, unassigned; (+)) the ID50 was 37.1 µM/kg. `CC1CCC(=NNc2ccccc2C(=O)O)c2ncc(C(=O)O)c(=O)n21` (stereo in doubt; 56) was tested, and the ID50 was 0.48 µM/kg. With `CC1CCC(=NNc2ccccc2C(=O)O)c2ncc(C(=O)O)c(=O)n21` (stereo in doubt; 57) the ID50 was 0.5 µM/kg.

Same assay, conditions: Rattus norvegicus, iv; read-out: ID50 (the source's name)
`CC1CC/C(=N\Nc2ccc(C(=O)O)cc2)c2ncc(C(=O)O)c(=O)n21` (centres undefined) gave an ED50 of 7.6 µmol/kg. `CC1CC/C(=N\Nc2ccc(Cl)cc2)c2ncc(C(=O)O)c(=O)n21` (centres undefined) gave an ED50 of 0.5 µmol/kg. `CC1CCCc2ncc(C(=O)O)c(=O)n21` (centres undefined) was tested, and the ED50 was 240 µmol/kg. Work on `C[C@H]1CC/C(=N\Nc2ccc(O)cc2)c2ncc(C(=O)O)c(=O)n21` yielded an ED50 of 110 µmol/kg. For `CCOc1ccc(N/N=C2\CC[C@@H](C)n3c2ncc(C(=O)O)c3=O)cc1`, the ED50 was 0.2 µmol/kg. `C[C@@H]1CC/C(=N\Nc2ccc(O)cc2)c2ncc(C(=O)O)c(=O)n21` showed an ED50 of 0.14 µmol/kg. `CCOC(=O)c1cnc2n(c1=O)C(C)CC/C2=N\Nc1cccc(C(=O)O)c1` (centres undefined) gave an ED50 of 100 µmol/kg. Compound `O=C(O)c1cnc2n(c1=O)CCC/C2=N\Nc1ccccc1` has an ED50 of 31.6 µmol/kg. In the case of `CCCCc1ccc(N/N=C2\CCC(C)n3c2ncc(C(=O)O)c3=O)cc1` (centres undefined), the ED50 is reported as 7.8 µmol/kg. In the case of `CCOc1cccc(N/N=C2\CCC(C)n3c2ncc(C(=O)O)c3=O)c1` (centres undefined), the ED50 is reported as 0.2 µmol/kg. `CCOC(=O)c1cnc2n(c1=O)C(C)CC/C2=N\Nc1ccccc1C(=O)O` (centres undefined) was tested, and the ED50 was 10 µmol/kg. In the case of `COc1ccc(N/N=C2\CCC(C)n3c2ncc(C(=O)O)c3=O)cc1` (centres undefined), the ED50 is reported as 0.8 µmol/kg. `CC1CC/C(=N\Nc2cccc(C(=O)O)c2)c2ncc(C(=O)O)c(=O)n21` (centres undefined) showed an ED50 of 26.6 µmol/kg. Compound `CC1CC/C(=N\Nc2ccccc2O)c2ncc(C(=O)O)c(=O)n21` (centres undefined) has an ED50 of 0.26 µmol/kg. `CC1CC/C(=N\Nc2ccc(-c3ccccc3)cc2)c2ncc(C(=O)O)c(=O)n21` (centres undefined) gave an ED50 of 1.1 µmol/kg. For `CNC(=O)c1ccc(N/N=C2\CCC(C)n3c2ncc(C(=O)O)c3=O)cc1` (centres undefined), the ED50 was 9.6 µmol/kg. Work on `CC1CC/C(=N\Nc2cccc([N+](=O)[O-])c2)c2ncc(C(=O)O)c(=O)n21` (centres undefined) yielded an ED50 of 0.5 µmol/kg. `CC1CC/C(=N\Nc2ccc(F)cc2)c2ncc(C(=O)O)c(=O)n21` (centres undefined) showed an ED50 of 12.2 µmol/kg. `CCOC(=O)c1cnc2n(c1=O)C(C)CC/C2=N\Nc1ccc(C(=O)O)cc1` (centres undefined) was tested, and the ED50 was 100 µmol/kg. `CC1CC/C(=N\Nc2ccccc2C(=O)O)c2nccc(=O)n21` (centres undefined) was tested, and the ED50 was greater than 100 µmol/kg. Work on `CC1CC/C(=N\Nc2ccccc2)c2ncc(CC(=O)O)c(=O)n21` (centres undefined) yielded an ED50 of 100 µmol/kg. `CC1CC/C(=N\Nc2ccccc2CCO)c2ncc(C(=O)O)c(=O)n21` (centres undefined) was tested, and the ED50 was 10.8 µmol/kg. Work on `O=C(O)c1cc(=O)c2c(OCC(O)COc3cccc4oc(C(=O)O)cc(=O)c34)cccc2o1` [CROMOLYN SODIUM] yielded an ED50 of 1 µmol/kg.

Reference: ChEMBL document CHEMBL1121945, “Nitrogen bridgehead compounds. 18. New antiallergic 4H-pyrido[1,2-a]pyrimidin-4-ones. 1” (J Med Chem, 1982)
